Measurements from US10736932B2, “Small molecule Ras inhibitors” (Ohio State Innovation Foundation, priority 2014, dated 2020).
“And” between values parts separate entries of the source, which are not always exact repeats. Equal entries are not always repeated. “Also recorded” adds a separate entry of the source. Where two headings read alike, the source gives them in different places. Numbered stars: 1 amine (or outer) side, 2 acyl side, 3 side chain; on linkers, the order of the positions; unused ones are H or OH. Bridge positions count the residues as written; N and C are the ends. Square brackets hold non-standard residues; d marks the D form. Peptide text beside a SMILES is read from it. * marks the point of attachment. ξ: configuration not given here. Lys(5-FITC)NH2 = NC(=O)[C@H](CCCCNC(=S)Nc1ccc2c(c1)C(=O)OC21c2ccc(O)cc2Oc2cc(O)ccc21)N*; FITC = O=C1OC2(c3ccc(O)cc3Oc3cc(O)ccc32)c2ccc(NC(=S)*)cc21; dβ3h(hPhe) = O=C(C[C@@H](CCc1ccccc1)N[*:1])[*:2]; Phe(4-F) = N[C@@H](Cc1ccc(F)cc1)C(=O)O; d2Nal = N[C@H](Cc1ccc2ccccc2c1)C(=O)O; Benzoyl(3-Cl) = O=C(c1cccc(Cl)c1)*; X1 = CC(C)(CO[*:2])C(=O)C(=O)[*:1]; ξ2Nal = NC(Cc1ccc2ccccc2c1)C(=O)O; Tle = CC(C)(C)[C@H](N)C(=O)O; dNle = CCCC[C@@H](N)C(=O)O; Dap = NC[C@H](N)C(=O)O; ξPip = O=C(O)C1CCCCN1

Assays:
[1] = inability to cross the cell membrane; cited from earlier work
[2] = test system: phosphorylation of Akt, Mek and Erk in A549 cells; experiment: Western blot of Ras signaling in A549 cells; assay type: cell-based; conditions: 10 μM, 10 min
EGFR phosphorylation = experiment: IP/Western blot of EGFR phosphorylation; assay type: cell-based; conditions: 13 μM
Source text: (§1) Two well characterized Ras effector pathways are the Raf-Mek-Erk and PI3K-Akt signaling pathways (Karnoub, A. E. et al. (2008) Nat Rev. Mol. Cell Biol. 9:517). To determine whether the cyclic peptides inhibited the intracellular Ras activity, Applicants monitored the phosphorylation levels of Mek, Erk, and Akt in cells before and after treatment with the Ras inhibitors. […] In order to rule out that the observed downregulation of P-Mek, P-Erk and P-Akt is caused by inhibition of EGFR signaling, the effect of Cyclosrasin 9A5 on the phosphorylation of the EGFR was tested by performing an IP/Western Blot experiment (FIG. 3E). Active, signaling EGFR is highly autohophosphorylated.

[3] = test system: phosphorylation of Akt, Mek and Erk in H1650 cells; experiment: Western blot of Ras signaling in H1650 cells; assay type: cell-based; conditions: 10 μM, 10 min
Source text: (§2) In the MTT assay, A549 cells were also found to be more resistant to the Ras inhibitors than other cell lines.
(§3) In H1975 the EGFR is also mutated. Certain mutated EGFR cannot be inhibited with Tarceva® due to the resistance conferring T790M mutation which precludes binding of the drug.

[4] = test system: phosphorylation of Akt, Mek and Erk in H1299 cells; experiment: Western blot of Ras signaling (Akt, Mek, Erk phosphorylation) in H1299 cells; assay type: cell-based
Source text: as §1, §2

[5] = test system: phosphorylation of Akt, Mek and Erk in H1975 cells; experiment: Western blot of Ras signaling in H1975 cells; assay type: cell-based; conditions: 10 μM, 10 min
Source text: as §2, §3

[6] = molecular target: T1, K-Ras / Raf RBD interaction (Homo sapiens, UniProt P01116, G12V); experiment: HTRF assay, inhibition of Ras-Raf RBD interaction; assay type: binding;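 further: HTRF signal read after overnight incubation of the assay plate at 4 °C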
T1 construct: The G12V mutant K-Ras (amino acids 1-185) was recombinantly fused; GST (N, cleaved yes); made in house; host or cells: Escherichia coli BL21
Description: Recombinant HA-tagged K-Ras (no GST, 50 nM), GST-Raf RBD (50 nM each), a monoclonal anti-HA antibody labeled with acceptor d2 (2 μg/mL), a monoclonal anti-GST antibody labeled with donor Tb (0.25 μg/mL) (Cisbio), and increasing concentrations of cyclic peptide (0-20 μM) were mixed inPBS (total volume of 20 μL) in a 384-well plate. The plate was incubated overnight at 4° C. and the HTRF signal was measured on a Molecular Devices Spectramax M5 or a Tecan infinite M1000 Pro plate reader. The data were analyzed by Prism 6.0 from Graphpad Software, Inc. (La Jolla, Calif.) and IC50 values were obtained by fitting the data to dose-response-inhibition curve.

[7] = test system: actin filaments in A549 cells; experiment: Actin filament staining (phalloidin-FITC) by confocal microscopy; assay type: cell-based; conditions: 10 μM, 15 min
Source text: The inhibition of Ras affects proliferation and survival of cells. […] These morphological changes are consistent with a collapse of the actin cytoskeleton. The dephosphorylation of cofilin activates the actin filament severing activity of this protein. The severing of actin filaments results in the collapse of the actin cytoskeleton. […] Without actin filaments, cells tend to round up and lose attachment to the substrate.

A549 cells [8] = experiment: Cellular uptake of FITC-labeled peptides (live-cell confocal microscopy, FACS)
A549 cells [9] = test system: A549 cells
H1299 lung cancer cells = assay type: cell-based; conditions: for anti-proliferative activity against lung cancer cells (in words): MTT assay
Description: MTT assays (17) were performed with H1299 lung cancer cells. One hundred μL of H1299 cells (0.5×10^5 cells/mL) were seeded in each well of a 96-well culture plate and allowed to grow overnight in Advanced RPMI medium supplemented with 10% fetal bovine serum (FBS) and 1% penicillin-streptomycin. Varying concentrations of cyclic peptide (0-25 μM) were added to the each well and the cells were incubated at 37° C. with 5% CO2 for 72 hours. Ten μL of a MTT stock solution (Roche) was added into each well. The plate was incubated at 37° C. for 4 h. Then 100 μL of SDS-HCl solubilizing buffer was added into each well, and the resulting solution was mixed thoroughly. The plate was incubated at 37° C. overnight. The absorbance of the formazan product was measured at 570 nm using a Molecular Devices Spectramax M5 plate reader. Each experiment was performed in triplicates and the cells without any peptide added were treated as control.

[10] = molecular target: maltose-binding protein-XIAP BIR3 domain fusion (Homo sapiens, UniProt P98170); experiment: FA binding of FITC-9A5 to control protein MBP-XIAP BIR3
[11] = inhibition of Ras-Raf interaction, read-out: HTRF IC50

T1 sequence (P01116 1-185 isoform P01116-2 G12V): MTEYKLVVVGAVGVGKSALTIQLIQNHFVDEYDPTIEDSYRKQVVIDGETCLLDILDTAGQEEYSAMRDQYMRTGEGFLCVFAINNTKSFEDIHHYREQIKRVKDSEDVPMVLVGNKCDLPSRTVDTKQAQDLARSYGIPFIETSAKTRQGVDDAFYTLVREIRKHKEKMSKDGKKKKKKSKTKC
Chain of maltose-binding protein-XIAP BIR3 domain fusion (P98170 241-356 limits assumed): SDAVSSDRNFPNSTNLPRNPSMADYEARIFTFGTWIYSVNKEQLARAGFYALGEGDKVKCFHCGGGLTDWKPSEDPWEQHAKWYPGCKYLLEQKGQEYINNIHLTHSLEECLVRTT

## CCCC[C@H]1NC(=O)[C@H](Cc2ccc(F)cc2)NC(=O)[C@H](CCCN=C(N)N)NC(=O)C(Cc2ccc3ccccc3c2)NC(=O)[C@H](CCCN=C(N)N)NC(=O)[C@H](CCCN=C(N)N)NC(=O)[C@H](CCC(N)=O)NC(=O)C[C@@H](CCc2ccccc2)NC(=O)C2CCCCN2C(=O)C(=O)C(C)(C)COC1=O (stereo partly drawn) [Compound 12] ([ξPip][dβ3h(hPhe)]QRR[ξ2Nal]R[Phe(4-F)][dNle]; linker N-C via X1)
[1]
  cellular activity: lacked cellular activity

## CCCC[C@H]1NC(=O)[C@H](Cc2ccc(F)cc2)NC(=O)[C@H](CCCNC(=N)N)NC(=O)[C@@H](Cc2ccc3ccccc3c2)NC(=O)[C@H](CCCNC(=N)N)NC(=O)[C@H](CCCNC(=N)N)NC(=O)[C@H](CCCNC(=N)N)NC(=O)[C@@H](C)NC(=O)[C@H]([C@@H](C)O)NC(=O)[C@H](Cc2c[nH]c3ccccc23)NC(=O)[C@H](CCC(N)=O)NC1=O [Cyclorasin 9A5, (Trp-Thr-ala-Arg-Arg-Arg-nal-Arg-Fpa-nle-Gln)] (cyclo(WT[dA]RRR[d2Nal]R[Phe(4-F)][dNle]Q))
[2]
  Mek, Erk and Akt phosphorylation: significant Mek and Erk phosphorylation remained
EGFR phosphorylation
  EGFR phosphorylation level: does no affect; also recorded: no effect
[3]
  Mek, Erk and Akt phosphorylation: almost completely abolished; also recorded: can be inhibited
[4]; H1299 cells unstimulated with EGF, 10 μM for 10 min
  basal phosphorylation of Mek and Akt: inhibited
[4]; H1299 cells, 10 μM, 10 min
  Mek, Erk and Akt phosphorylation: almost completely abolished
[4]; H1299 cells, 13 μM, 5 min
  EGF-induced phosphorylation of Akt and Mek: significant reduction
[4]; H1299 cells, 13 μM, time course
  phosphorylation level of Erk: decreased, but to a lesser extent
[4]; H1299 cells, 13 μM, ≥10 min
  EGF-induced phosphorylation of Akt and Mek: completely abolished
[5]
  Mek, Erk and Akt phosphorylation: almost completely abolished; also recorded: can be inhibited
[6]
  IC50: 120 nM
[7]
  actin filaments in treated cells: absent
A549 cells [8]; Gln8 replaced with L- or D-arginine
  cell permeability relative to earlier peptides: improved cell permeability

## C[C@H]1NC(=O)[C@H](CCCNC(=N)N)NC(=O)[C@H](Cc2c[nH]c3ccccc23)NC(=O)[C@H](CCCNC(=N)N)NC(=O)[C@H](Cc2ccc(F)cc2)NC(=O)[C@H](CCCNC(=N)N)NC(=O)[C@@H](Cc2ccc3ccccc3c2)NC(=O)[C@H](CCCNC(=N)N)NC(=O)[C@H](CCCNC(=N)N)NC(=O)[C@H](CCC(N)=O)NC1=O [Cyclorasin 12A, (Arg-Arg-nal-Arg-Fpa-Arg-Trp-Arg-ala-Gln)] (cyclo(RR[d2Nal]R[Phe(4-F)]RWR[dA]Q); ring closure inferred)
A549 cells [9]
  cell permeability: cell permeable
H1299 lung cancer cells
  anti-proliferative activity against lung cancer cells (in words): weak
[6]; [11]
  IC50: 1000 nM

## CCCC[C@H]1NC(=O)[C@H](Cc2ccc(F)cc2)NC(=O)[C@H](CCCNC(=N)N)NC(=O)[C@@H](Cc2ccc3ccccc3c2)NC(=O)[C@H](CCCNC(=N)N)NC(=O)[C@H](CCCNC(=N)N)NC(=O)[C@H](CCC(=O)N[C@@H](CCCCNC(=S)Nc2ccc3c(c2)C(=O)OC32c3ccc(O)cc3Oc3cc(O)ccc32)C(N)=O)NC(=O)[C@@H](C)NC(=O)[C@H]([C@@H](C)O)NC(=O)[C@H](Cc2c[nH]c3ccccc23)NC(=O)[C@@H](CO)NC1=O [Cyclorasin 9A, (Arg-Arg-nal-Arg-Fpa-nle-ser-Trp-Thr-ala-Gln)] (cyclo(RR[d2Nal]R[Phe(4-F)][dNle][dS]WT[dA]E(Lys(5-FITC)NH2)))
H1299 lung cancer cells
  anti-proliferative activity against lung cancer cells (in words): weak
[6]; [11]
  IC50: 650 ± 110 nM
A549 cells [8]; A549 cells, 10 μM FITC-labeled peptide, 1.5 h
  cell permeability: cell permeable

## CCCC[C@H]1NC(=O)[C@H](CNC(=O)c2cccc(Cl)c2)NC(=O)[C@H](CCCNC(=N)N)NC(=O)[C@@H](Cc2ccc3ccccc3c2)NC(=O)[C@H](CCCNC(=N)N)NC(=O)[C@H](CCCNC(=N)N)NC(=O)[C@H](CCCNC(=N)N)NC(=O)[C@@H](C)NC(=O)[C@H](C(C)(C)C)NC(=O)[C@H](Cc2c[nH]c3ccccc23)NC(=O)[C@H](CCC(N)=O)NC1=O [Cyclorasin 9A44d, (Trp-Tle-ala-Arg-Arg-Arg-nal-Arg-Dap(3-chlorobenzoyl)-nle-Gln)] (cyclo(W[Tle][dA]RRR[d2Nal]R[Dap](Benzoyl(3-Cl))[dNle]Q))
H1299 lung cancer cells; H1299 cells, MTT, 72 hours, read-out: Anti-proliferative Activity IC50
  IC50: 14000 ± 2000 nM
[6]
  IC50: 49 ± 7 nM

## CCCC[C@H]1NC(=O)[C@H](Cc2ccc(F)cc2)NC(=O)[C@H](CCCNC(=N)N)NC(=O)[C@@H](Cc2ccc3ccccc3c2)NC(=O)[C@H](CCCCNC(=S)Nc2ccc3c(c2)C(=O)OC32c3ccc(O)cc3Oc3cc(O)ccc32)NC(=O)[C@H](CCCNC(=N)N)NC(=O)[C@H](CCCNC(=N)N)NC(=O)[C@@H](C)NC(=O)[C@H]([C@@H](C)O)NC(=O)[C@H](Cc2c[nH]c3ccccc23)NC(=O)[C@H](CCC(N)=O)NC1=O [FITC-9A5] (cyclo(K(FITC)[d2Nal]R[Phe(4-F)][dNle]QWT[dA]RR))
A549 cells [8]; A549 cells, 10 μM FITC-labeled peptide
  mean fluorescence intensity relative to FITC-9A54 (FACS): ~5 fold
A549 cells [8]; A549 cells, 10 μM FITC-labeled peptide, 15 min
  intracellular fluorescence pattern (confocal microscopy): intense, defuse fluorescence throughout the cytoplasm
[10]
  Kd: ~30000 nM and 30000 nM
